Measurements reported in US20190388387A1, “COMPOSITION FOR INHIBITING MYOFIBROSIS” (SUNTORY HOLDINGS LIMITED, priority 2017, published 2019).

Legend:
Acta2 gene = test: Fibrosis marker gene expression analysis (quantitative PCR), Acta2 gene; type: cell-based, rat; conditions: TGF β 1 ng/mL, 24 hours, Dunnett's test vs. TGF β(+), FIG. 2(a)
Description: (§1) Gastrocnemius, soleus, plantaris muscle, tibialis anterior, extensor digitorum longus, and quadriceps were extracted from male Fischer 344 rats of 9 to 15 weeks old under anesthesia, and minced in phosphate buffered saline (PBS) (Life Technologies Corporation) on ice. The minced muscle tissue was enzymatically degraded by Protease (Sigma-Aldrich) at 37° C., and then centrifuged repeatedly, whereby the muscle satellite cells were isolated. The muscle satellite cells were suspended in Dulbecco's Modified Eagle Medium (DMEM) containing 10% fetal equine serum, and cultured for 24 hours. After culturing, centrifugation was performed again, and the deposited muscle satellite cells were seeded onto an 8-well slide glass (Thermo Fisher Scientific) to a density of 5×10^4 to 7×10^4 cells/mL in F-10 medium (Gibco) containing 20% bovine serum. After seeding, the muscle satellite cells were cultured for 72 hours or 120 hours. […] The cDNAs obtained by reverse transcription reaction was subjected to quantitative PCR in Step One Plus Real Time PCR System using TaqMan Fast Universal PCR Mastermix (Life Technologies Corporation). The expression levels of Colla1 gene and Acta2 gene as a myofibroblast marker were measured. For quantitative PCR, the cells were first maintained at 95° C. for 20 seconds, and then subjected to 40 cycles of reaction at 95° C. for 1 second and 60° C. for 20 seconds. […]

Colla1 gene = test: Fibrosis marker gene expression analysis (quantitative PCR), Colla1 gene; type: cell-based, rat; conditions: TGF β 1 ng/mL, 24 hours, FIG. 2(b)
Description: as §1

[1] = system: rat skeletal muscle-derived muscle satellite cells; test: Morphological changes of muscle satellite cells to myofibroblasts under TGF β fibrosis induction (Masson's Trichrome staining); type: cell-based; conditions: TGF β 1 ng/mL
Description: Gastrocnemius, soleus, plantaris muscle, tibialis anterior, extensor digitorum longus, and quadriceps were extracted from male Fischer 344 rats of 9 to 15 weeks old under anesthesia, and minced in phosphate buffered saline (PBS) (Life Technologies Corporation) on ice. The minced muscle tissue was enzymatically degraded by Protease (Sigma-Aldrich) at 37° C., and then centrifuged repeatedly, whereby the muscle satellite cells were isolated. The muscle satellite cells were suspended in Dulbecco's Modified Eagle Medium (DMEM) containing 10% fetal equine serum, and cultured for 24 hours. After culturing, centrifugation was performed again, and the deposited muscle satellite cells were seeded onto an 8-well slide glass (Thermo Fisher Scientific) to a density of 5×10^4 to 7×10^4 cells/mL in F-10 medium (Gibco) containing 20% bovine serum. After seeding, the muscle satellite cells were cultured for 72 hours or 120 hours. The muscle satellite cells for tissue staining were cultured for 72 hours, and muscle satellite cells for genetic analysis were cultured for 120 hours to provide enough cells. In the case of the muscle satellite cells to be cultured for 120 hours, the F-10 medium containing 20% bovine serum was replaced 72 hours after seeding. After the culturing for 72 hours or 120 hours, the muscle satellite cells were cultured in a differentiation-inducing medium for 24 hours. The differentiation-inducing medium was a medium in which a TGF β (TGF-β) signal inhibitor, quercetin, or solvent was added in an amount shown in Table 1 to Dulbecco's Modified Eagle Medium (DMEM) containing 2% fetal equine serum. TGF β (Sigma-Aldrich) was used for fibrosis induction. The compound was added to the differentiation-inducing medium using HCl as solvent to a final concentration of 1 ng/mL. TGF β was added when a TGF β signal inhibitor or quercetin was added. The TGF β signal inhibitor was SB525334 (6-[2-tert-butyl-5-(6-methyl-pyridin-2-yl)-1H-imidazol-4-yl]-quinoxaline available from Wako Pure Chemical Industries, Ltd.). […]

How did the “expression of Acta2 gene” value (Acta2 gene; SB525334 1 μM) turn out when `Cc1cccc(-c2[nH]c(C(C)(C)C)nc2-c2ccc3nccnc3c2)n1` [SB525334, 6-[2-tert-butyl-5-(6-methyl-pyridin-2-yl)-1H-imidazol-4-yl]-quinoxaline, reference compound] was run?
The value was “significantly inhibited”.

What about the “expression of Colla1 gene” value (Colla1 gene; SB525334 1 μM, Dunnett's test vs. TGF β(+)) of the same compound?
Its value is “significantly inhibited”.

And the “TGF β-induced morphological changes of muscle satellite cells to myofibroblasts” value ([1]; SB525334 1 μM, 24 hours in differentiation-inducing medium, FIG. 1(c))?
The value was “clearly inhibited”.

Which “expression of Acta2 gene” value (Acta2 gene; quercetin 100 μM) does the source give for `O=c1c(O)c(-c2ccc(O)c(O)c2)oc2cc(O)cc(O)c12` [quercetin] here?
The value was “significantly inhibited”.

And the “expression of Colla1 gene” value (Colla1 gene; quercetin 50 μM and 100 μM)?
The value was “inhibited in a concentration-dependent manner”.

What about the “morphological changes of muscle satellite cells to myofibroblast-like cells” value ([1]; quercetin 50 μM, 24 hours, vs. TGF β-added group, FIG. 1(d)) of the same compound?
Its value is “more inhibited”.

And the “morphological changes of muscle satellite cells to myofibroblasts” value ([1]; quercetin 100 μM, 24 hours, vs. 50-μM quercetin-added group, FIG. 1(e))?
Its value is “stronger effect of inhibiting morphological changes”.
